Assay results reported in patent US5989846A, “Assays to identify inducers of plant defense resistance” (Rutgers, The State University of New Jersey, priority 1995, dated 1999).

What was measured:
bovine catalase = target: T1, bovine catalase (Bos taurus, UniProt P00432); conditions: Kirkman and Gaetani 1984; cited from earlier work
T1 sequence (P00432 2-527 limits assumed): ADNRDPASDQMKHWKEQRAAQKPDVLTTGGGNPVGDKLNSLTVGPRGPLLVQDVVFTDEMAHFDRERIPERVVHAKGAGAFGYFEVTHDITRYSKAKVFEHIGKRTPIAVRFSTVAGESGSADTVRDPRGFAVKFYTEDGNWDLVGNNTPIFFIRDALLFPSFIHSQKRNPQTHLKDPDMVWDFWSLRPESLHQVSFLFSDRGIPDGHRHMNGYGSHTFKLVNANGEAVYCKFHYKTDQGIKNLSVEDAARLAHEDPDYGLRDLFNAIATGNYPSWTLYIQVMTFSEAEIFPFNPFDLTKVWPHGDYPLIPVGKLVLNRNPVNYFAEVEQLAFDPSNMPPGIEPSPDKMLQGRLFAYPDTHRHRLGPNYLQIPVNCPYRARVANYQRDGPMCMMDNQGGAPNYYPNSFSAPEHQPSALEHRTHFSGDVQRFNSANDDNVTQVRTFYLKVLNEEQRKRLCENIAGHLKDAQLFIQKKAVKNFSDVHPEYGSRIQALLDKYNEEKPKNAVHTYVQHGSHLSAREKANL

[1] = target: T2, catalase activity of SABP (Nicotiana tabacum, UniProt P49319); assay: Catalase activity of highly purified SABP (luminol method); type: biochemical, tobacco; conditions: 0.05 h; 1 mM SA or analogue, 1 mM H2O2, 500 ng highly purified SABP
T2 sequence (P49319 1-492): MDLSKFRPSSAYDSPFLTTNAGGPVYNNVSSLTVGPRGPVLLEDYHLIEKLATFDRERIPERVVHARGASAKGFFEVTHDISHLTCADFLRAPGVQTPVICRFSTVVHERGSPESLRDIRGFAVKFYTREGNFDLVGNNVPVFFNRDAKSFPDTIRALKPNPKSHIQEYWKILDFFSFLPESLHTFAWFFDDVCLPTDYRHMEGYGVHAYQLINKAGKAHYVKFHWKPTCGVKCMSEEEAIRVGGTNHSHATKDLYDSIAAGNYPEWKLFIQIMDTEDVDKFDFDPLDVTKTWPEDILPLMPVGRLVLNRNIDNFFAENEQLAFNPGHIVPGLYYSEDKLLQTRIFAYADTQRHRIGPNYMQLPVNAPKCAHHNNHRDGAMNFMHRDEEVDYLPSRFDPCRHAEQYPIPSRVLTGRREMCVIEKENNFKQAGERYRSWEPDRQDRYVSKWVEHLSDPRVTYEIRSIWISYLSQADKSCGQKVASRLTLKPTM
Protocol: Aliquots (50 μl) were removed from the assay mixture at 30 second intervals to assay for amount of H2 O2 remaining using the luminol method as has been described by Warm and Laties, Phytochem. […] The tube was placed in the measuring chamber and assay was initiated with automatic injection into the mixture of 100 μl of 0.5 mM K3 Fe(CN)6 in 0.2N NH4 OH, pH 9.5. Measurements were integrated over 5 second periods. H2 O2 was calculated from the standard curve constructed with known amounts of H2 O2. Rate constants of SABP catalase activity in the presence or absence of SA or its analogues were then calculated based on a first-order mechanism.

[2] = system: salicylic acid binding protein; assay: Competitive [14C] salicylic acid binding assay (spin-column); parameters: species or system tobacco; conditions: [14C] salicylic acid 20 μM
Protocol: The 180 kDa native binding protein isolated was tested for binding affinity and specificity. A competitive assay was established using salicylic acid binding protein fractionated from plants as previously described.
A key element during the characterization and the purification process is a simple, inexpensive, sensitive and reliable method for determining the salicylic acid binding activity. For this purpose, spin-column exclusion chromatography was used to separate the bound [^14 C] salicylic acid (excluded) from the bulk free salicylic acid (included). Specifically, a 1.5 ml Eppendorf tube was punctured at the tip with a 20-gauge needle and a small amount of glass wool was added to cover the small hole. The tube was then filled with Bio-Gel P-6DG desalting gel (exclusion limit 6 KDa; purchased from Bio-Rad, Melville, N.Y.) which have been swollen in water. An alternative gel is Sephadex G-25 fine (from Pharmacia, Piscataway, N.J.). Excess liquid in the gel was removed and centrifuged for 5 minutes at full speed in a Dynamic centrifuge (Becton Dickinson). The process was then repeated several times until the gel filled the tube. After incubation of an aliquot of the extract or column fractions for 2 hr at 4° C. with 5 μM-20 μM [^14 C salicylic acid] (specifically radioactivity 55 Ci/mol; purchased from New England Nuclear), 150 μl of proteins binding sample was loaded onto the tube column, which was then rapidly centrifuged for 2 minutes at full speed and the solution of proteins and bound [^14 C-salicylic acid] that was excluded from the gel was collected into another tube that had been placed under the tube column during the centrifugation. One hundred microliters of this solution was then used to determine the amount of bound salicylic acid. […] For example, to determine the inhibitory effect of various salicylic acid analogues on salicylic acid binding activity, these individual analogues were included in the binding mixture containing both the protein and [^14 C] salicylic acid during the 2 hr incubation, and resulting binding activity was determined in comparison to the activity in the absence of these analogues. Likewise, to determine the effect of pH and antioxidants on the binding activity the protein sample was either dialyzed against a large volume of buffers with different pH or antioxidants were added to the protein sample to various concentrations and the resulting binding activities were then determined with the spin-column method in comparison with the activity determined in the absence of these treatments.

ascorbate peroxidase = assay: Ascorbate peroxidase activity in tobacco leaf extracts; type: biochemical, Nicotiana tabacum cv. Xanthi nc; conditions: 200 μM compound, corrected for quenching of auto oxidation
Outline: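 Soluble extracts from leaves of 6–8-week Nicotiana tabacum cv. Xanthi nc, desalted into 50 mM potassium phosphate pH 7 with 100 μM ascorbate, were assayed (30–50 μg protein) with or without 100 or 1000 μM SA or INA. Ascorbate oxidation followed as A290 decrease; means of three replicates.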

SABP = system: SABP; parameters: concentration or dose not given beside the values; conditions: Table 6; previously published data (Chen et al. 1993); cited from earlier work
H2 O2 = assay: Abundance of H2O2 in treated tobacco leaves; type: in vivo; conditions: FIG. 11
Excerpt: The abundance of H2 O2 increased in SA- or 3AT-treated tobacco leaves by 50-60% over the control levels observed in water-treated leaves. […] Thus, elevated levels of H2 O2, and in turn, enhanced oxidative stress in vivo, were consistent with inhibition of catalase activity by SA observed in vitro.

[3] = system: resistance or PR gene expression; parameters: key: ++: indicates a high level of biological activity; +: indicates a lower level of biological activity; ±: indicates low, but detectable biological activity in some assays; -: indicates no biological activity; conditions: Table 3; values reported in literature; cited from earlier work

For `NC(=O)C1=CN([C@@H]2O[C@H](COP(=O)(O)OP(=O)(O)OC[C@H]3O[C@@H](n4cnc5c(N)ncnc54)[C@H](OP(=O)(O)O)[C@@H]3O)[C@@H](O)[C@H]2O)C=CC1` [NADPH, nicotinamide adenine dinucleotide phosphate], the “Binding to bovine catalase” value (bovine catalase) is listed as “tightly binds”.

For `NC(=O)C1=CN([C@@H]2O[C@H](COP(=O)(O)OP(=O)(O)OC[C@H]3O[C@@H](n4cnc5c(N)ncnc54)[C@H](O)[C@@H]3O)[C@@H](O)[C@H]2O)C=CC1` [NADH, nicotinamide adenine dinucleotide], the “Binding to bovine catalase” value (bovine catalase) is given as “tightly binds”.

With `O=C(O)c1cccc(O)c1` [3-Hydroxybenzoic acid] the inhibition at 1000 µM [1] was 3.1%, the “Inhibition (%) 2×” value ([2]; 40 μM (2×) unlabeled competitor) was -2% and the “Inhibition (%) 10×” value ([2]; 200 μM (10×) unlabeled competitor) was 0%. For the same compound, the “% Inhibition of ascorbate peroxidase” value (ascorbate peroxidase) was 28 ± 7%, the “Inhibition (%) [14C]SA binding” value (SABP) was 1% and the “Increase in abundance of H2O2 over water-treated leaves” value (H2 O2) was “unable to enhance”. For the same compound, the Biological activity [3] was “-”.
